Measurements as given in paper PMC9482650, “Quantitative fragmentomics allow affinity mapping of interactomes” (Nature Communications, 2022).
Ends that are not written are not given here. * marks the point of attachment. Biotin = O=C1N[C@H]2[C@H](CS[C@H]2CCCCC(=O)*)N1; ttds = NCCCOCCOCCOCCCNC(=O)CCC(=O)*

Tests used:
Type in all cases: binding, human
PDZ-proteins = assay: Estimated PPI affinity, additive association constants of all PDZ sites;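 also: calculated estimate, not directly measured: domain-motif affinities from holdup assays, association constants summed over all PDZ sites, one motif bound at a time, weak interactions ignored, giving a lower limit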
Description: We used the previously generated domain-motif interactome, consisting of the composite affinities (i.e., taken from the most reliable holdup method; see above) to estimate affinities of PPIs. We assumed that a multidomain PDZ-protein can only interact with a single PBM at the same time (Eq. (4)):4 PDZ+PBM⇌(PDZ−PBM)site1,or(PDZ−PBM)site2,or(PDZ−PBM)siten
Using this approximation, as proposed by others before[45], the association constant of a multi-site interaction is the sum of the association constants of all sites (Eq. (5)):5 Ka,additive=[PDZ−PBM]site1+[PDZ−PBM]site2+…+[PDZ−PBM]siten/[PDZ]×[PBM]=∑Ka,site
The contribution of unmeasurable weak interactions was also neglected in the calculations.

HeLa cell extract preys = assay: PBM-AP-MS, PBM peptide baits
Description: (§1) HEK293T and HeLa cells were authenticated and found 100% identity to ATCC cat. CRL-3216 and ATCC cat. CCL-2, respectively. Jurkat and HaCat cell lines were not authenticated (original source: ECACC and Deutsches Krebsforschungszentrum DKFZ, respectively). HeLa cells were grown in DMEM (1 g/L glucose, Gibco) medium completed with 5% FCS and 40 μg/mL gentamicin, diluted every 3rd/4th day 1/10. HaCat cells were grown in DMEM (1 g/L glucose, Gibco) medium completed with 10% FCS and 40 μg/mL gentamicin, diluted every 3rd/4th day 1/4. Jurkat cells were grown in RPMI (Gibco) medium completed with 10% FCS and 40 μg/mL gentamicin, diluted every 3rd/4th day 1/12. All cells were kept at 37 °C and 5% CO2. For proteomics analyses cells were seeded on T-175 flasks. After they reached confluency, adherent cells were washed with PBS once and collected by scraping with ice-cold lysis buffer (Hepes-KOH pH 7.5 50 mM, NaCl 150 mM, Triton X-100 1%, complete EDTA-free protease inhibitor cocktail 1×, EDTA 2 mM, TCEP 5 mM, glycerol 10%). Jurkat cells were collected by 1000 g × centrifugation, washed once with PBS, then collected by 1000 g × 5 min centrifugation again and lysed in ice-cold lysis buffer. Lysates were sonicated 4 × 20 s with 1 s long pulses on ice, then incubated rotating at 4 °C for 30 min. Lysates were centrifuged at 12,000 rpm 4 °C for 20 min and supernatant was kept for further analysis. Concentration determination was carried out by standard Bradford method (Bio-Rad Protein Assay Dye Reagent #5000006) using BSA (MP BIomedicals #160069) as control on a Bio-Rad SmartSpec 3000 spectrophotometer instrument.
(§2) For PBM-AP-MS experiments, 30 μl streptavidin resin was mixed with biotin or peptide at 50–60 μM concentration in 6–6.5 resin volume for 60 min to achieve resin saturation. For PDZ-AP-MS experiments, 30 μl streptavidin resin was mixed with biotinylated MBP or MBP-PDZ at 40-50 μM concentration in >1000× resin volume for 60 min to achieve resin saturation. After saturation, resins were washed a single time (ten resin volume, holdup buffer), and were depleted with biotin (1 mM biotin, 5–10 resin volume, 10 min). Finally, resins were washed two times. 0.5 ml 2 mg/ml cell lysate was added to the dry resin (1 mg total input) and were incubated at 4 °C for 2 h. Then, the beads were washed three times with 10 resin volume buffer containing: 50 mM TRIS pH 8.5, 150 mM NaCl, 1% TritonX-100, 10× complete EDTA-free protease inhibitor cocktail, 2 mM EDTA, 1 mM TCEP. Then, the beads were washed two times with ten resin volume buffer containing: 50 mM TRIS pH 8.5, 150 mM NaCl, 1 mM TCEP. Finally, captured protein was eluted from the resin in two steps and the eluted fractions were pooled. For each elution the beads were incubated for 30 min with three resin volume buffer containing: 20 mM TRIS pH8.5, 100 mM NaCl, 500 μM TCEP, 8 M Urea. Between each step, the beads were separated by mild centrifugation and the supernatant was removed by gentle pipetting.
(§3) The samples were precipitated with TCA 20% overnight at 4 °C and centrifuged at 14,000 rpm for 10 min at 4 °C. The protein pellets were washed twice with 1 mL cold acetone and air dried. The protein extracts were solubilized in urea 8 M, reduced with 5 mM TCEP for 30 min, and alkylated with 10 mM iodoacetamide for 30 min in the dark. Double digestion was performed at 37 °C with 500 ng endoproteinase Lys-C for 4 h, followed by fourfold dilution and an overnight digestion with 500 ng trypsin. Peptide mixtures were then desalted on C18 spin-column and dried on Speed-Vacuum.
(§4) Samples were analyzed using an Ultimate 3000 nano-RSLC (Thermo Scientific, San Jose California) coupled in line with a LTQ-Orbitrap ELITE mass spectrometer via a nano-electrospray ionization source (Thermo Scientific, San Jose California). […]

[1] = test system: Jurkat cell extract preys; assay: PBM-AP-MS, PBM peptide baits
Description: as §1, §2, §3, §4

## HPV30E6 ({Biotin-ttds}-RHTTSTETAV)
PDZ-proteins; PDZ-protein AHNAK
  final additive pKd: 3.716
PDZ-proteins; PDZ-protein CASK
  final additive pKd: 3.5
PDZ-proteins; PDZ-protein DLG1
  final additive pKd: 5.729
PDZ-proteins; PDZ-protein InaDl
  final additive pKd: 4.166
PDZ-proteins; PDZ-protein LAP2
  final additive pKd: 4.458
PDZ-proteins; PDZ-protein LIN7C
  final additive pKd: 4.187
PDZ-proteins; PDZ-protein LNX2
  final additive pKd: 3.771
PDZ-proteins; PDZ-protein MAGI3
  final additive pKd: 5.357
PDZ-proteins; PDZ-protein MPP5
  final additive pKd: 3.5
PDZ-proteins; PDZ-protein MPP6
  final additive pKd: 3.5
PDZ-proteins; PDZ-protein MPP7
  final additive pKd: 3.5
PDZ-proteins; PDZ-protein NHERF2
  final additive pKd: 3.5
PDZ-proteins; PDZ-protein PDLIM2
  final additive pKd: 3.5
PDZ-proteins; PDZ-protein PDLIM5
  final additive pKd: 3.5
PDZ-proteins; PDZ-protein PDLIM7
  final additive pKd: 3.5
PDZ-proteins; PDZ-protein PSMD9
  final additive pKd: 3.5
PDZ-proteins; PDZ-protein SCRIB
  final additive pKd: 5.522
PDZ-proteins; PDZ-protein SNTB1
  final additive pKd: 5.102
PDZ-proteins; PDZ-protein SNTB2
  final additive pKd: 4.675
PDZ-proteins; PDZ-protein SNX27
  final additive pKd: 5.636
PDZ-proteins; PDZ-protein SYNJ2BP
  final additive pKd: 5.355
PDZ-proteins; PDZ-protein TX1B3
  final additive pKd: 4.653
HeLa cell extract preys; prey AHNAK, PBM peptide bait
  Enrichment values compared to biotin controls: 1.1
HeLa cell extract preys; prey CASK, PBM peptide bait
  Enrichment values compared to biotin controls: 20.8
HeLa cell extract preys; prey DLG1, PBM peptide bait
  Enrichment values compared to biotin controls: 6.0
HeLa cell extract preys; prey DLG5, PBM peptide bait
  Enrichment values compared to biotin controls: 0.7
HeLa cell extract preys; prey DVL2, PBM peptide bait
  Enrichment values compared to biotin controls: 0.7
HeLa cell extract preys; prey HTRA1, PBM peptide bait
  Enrichment values compared to biotin controls: 1.3
HeLa cell extract preys; prey InaDl, PBM peptide bait
  Enrichment values compared to biotin controls: 0.8
HeLa cell extract preys; prey LAP2, PBM peptide bait
  Enrichment values compared to biotin controls: 1.5
HeLa cell extract preys; prey LIN7C, PBM peptide bait
  Enrichment values compared to biotin controls: 110.0
HeLa cell extract preys; prey LMO7, PBM peptide bait
  Enrichment values compared to biotin controls: 0.8
HeLa cell extract preys; prey LNX2, PBM peptide bait
  Enrichment values compared to biotin controls: 1.0
HeLa cell extract preys; prey MPDZ, PBM peptide bait
  Enrichment values compared to biotin controls: 1.6
HeLa cell extract preys; prey MPP5, PBM peptide bait
  Enrichment values compared to biotin controls: 4.5
HeLa cell extract preys; prey MPP7, PBM peptide bait
  Enrichment values compared to biotin controls: 9.1
HeLa cell extract preys; prey PDLIM5, PBM peptide bait
  Enrichment values compared to biotin controls: 0.9
HeLa cell extract preys; prey PDLIM7, PBM peptide bait
  Enrichment values compared to biotin controls: 0.9
HeLa cell extract preys; prey PSMD9, PBM peptide bait
  Enrichment values compared to biotin controls: 0.7
HeLa cell extract preys; prey SCRIB, PBM peptide bait
  Enrichment values compared to biotin controls: 155.6
HeLa cell extract preys; prey SDCBP, PBM peptide bait
  Enrichment values compared to biotin controls: 1.3
HeLa cell extract preys; prey SIPA1L1, PBM peptide bait
  Enrichment values compared to biotin controls: 0.5
HeLa cell extract preys; prey SNTB1, PBM peptide bait
  Enrichment values compared to biotin controls: 6.5
HeLa cell extract preys; prey SNTB2, PBM peptide bait
  Enrichment values compared to biotin controls: 1.1
HeLa cell extract preys; prey SNX27, PBM peptide bait
  Enrichment values compared to biotin controls: 1.4
HeLa cell extract preys; prey SYNJ2BP, PBM peptide bait
  Enrichment values compared to biotin controls: 15.4
  Fold changes HeLa, SYNJ2BP: 15.4
HeLa cell extract preys; prey TJP1, PBM peptide bait
  Enrichment values compared to biotin controls: 0.7
[1]; prey APBA1, PBM peptide bait
  Enrichment values compared to biotin controls: 2.1
[1]; prey DLG4, PBM peptide bait
  Enrichment values compared to biotin controls: 4.1
[1]; prey DVL2, PBM peptide bait
  Enrichment values compared to biotin controls: 0.9
[1]; prey GOPC, PBM peptide bait
  Enrichment values compared to biotin controls: 1.2
[1]; prey InaDl, PBM peptide bait
  Enrichment values compared to biotin controls: 0.6
[1]; prey LAP2, PBM peptide bait
  Enrichment values compared to biotin controls: 2.7
[1]; prey LNX2, PBM peptide bait
  Enrichment values compared to biotin controls: 0.543
[1]; prey MAGI3, PBM peptide bait
  Enrichment values compared to biotin controls: 2.1
[1]; prey MPP1, PBM peptide bait
  Enrichment values compared to biotin controls: 1.4
[1]; prey MPP5, PBM peptide bait
  Enrichment values compared to biotin controls: 1.1
[1]; prey MPP6, PBM peptide bait
  Enrichment values compared to biotin controls: 1.2
[1]; prey MPP7, PBM peptide bait
  Enrichment values compared to biotin controls: 2.8
[1]; prey MYO18A, PBM peptide bait
  Enrichment values compared to biotin controls: 1.1
[1]; prey PDLIM2, PBM peptide bait
  Enrichment values compared to biotin controls: 1.5
[1]; prey PDLIM5, PBM peptide bait
  Enrichment values compared to biotin controls: 0.9
[1]; prey PDLIM7, PBM peptide bait
  Enrichment values compared to biotin controls: 1.1
[1]; prey PDZD11, PBM peptide bait
  Enrichment values compared to biotin controls: 3.0
[1]; prey PSMD9, PBM peptide bait
  Enrichment values compared to biotin controls: 0.7
[1]; prey SIPA1L1, PBM peptide bait
  Enrichment values compared to biotin controls: 1.1
[1]; prey SIPA1L2, PBM peptide bait
  Enrichment values compared to biotin controls: 0.65
[1]; prey SNTB1, PBM peptide bait
  Enrichment values compared to biotin controls: 3.6
[1]; prey SNTB2, PBM peptide bait
  Enrichment values compared to biotin controls: 1.0
[1]; prey SNX27, PBM peptide bait
  Enrichment values compared to biotin controls: 14.6
[1]; prey SYNJ2BP, PBM peptide bait
  Enrichment values compared to biotin controls: 1.5
[1]; prey TX1B3, PBM peptide bait
  Enrichment values compared to biotin controls: 1.2
